Measurements as given in patent publication US9920383B2, “Active substances for increasing the stress defense in plants to abiotic stress, and methods of finding them” (Bayer Intellectual Property GMBH, priority 2005, dated 2018).

Tests used:
[1] = test system: Zm12587.1.S1.s_at: glycosyltransferase; test: Gene expression profiling (maize genome array), heat stress; format: in vivo, maize cv. Lorenzo; details: vs unstressed solvent-dressed control
Description: (§1) Maize seeds cv. Lorenzo were dressed as described in example 1 with the compound VIII-3 (=4-cyclopropylaminocarbonyl-N-(2-methoxybenzoyl)benzenesulfonamide) or with solvent. The plants were raised for 10 days in a controlled-environment chamber (conditions: see example 1).
(§2) Thereafter, the plants were exposed to the following stress conditions: • (1) Heat stress: 6 h at 45° C. • (2) Drought stress: 7 days without irrigation, 24° C.
(§3) The control plants of the specific experimental group were kept under the standard conditions described in example 1 (temperature, irrigation).
(§4) After the stress treatment, the leaves of the stressed plants and of the unstressed control plants were harvested, shock-frozen in liquid nitrogen and stored at −80° C. until processed. All experiments were carried out in replications of in each case 2 pots.
(§5) The labeled RNA probes for the DNA chip hybridization were prepared as described in the protocols (Expression Analysis. Technical Manual) from Affymetrix (Affymetrix Inc., 3380 Central Expressway, Santa Clara, Calif., USA). First, total RNA was isolated from in each case 500 mg of the harvested leaves. In each case 10 μg of total RNA were used for the cDNA first- and second-strand synthesis. The cDNA was amplified with T7 polymerase and simultaneously labeled with biotin-UTP. In each case 20 μg of this biotinylated […] were employed for the hybridization of the maize genome array from Affymetrix. This DNA microarray contains DNA sequences whose totality represents 13339 genes. Thereafter, the DNA microarrays were washed in the Affymetrix Fluidics Station, stained with streptavidin/phycoerythrin (Molecular Probes, P/N S-866) and scanned with the appropriate Agilent Laser Scanner (Agilent Gene Array Scanner). The fluorescence data obtained were analyzed using Affymetrix's Microarray Suite 5 software. After the quality assurance had been performed, all DNA chip analyses were stored in a database. To determine relevant expression values (induction factors, repression factors), the absolute expression values of the genes from the respective stress experiments were compared with the values of the respective control experiments (i.e. without abiotic stress and solvent-dressing only), based on the scoring function predetermined by the Affymetrix software. The resulting 4 expression values per gene were averaged by calculating the median value. These median values are shown in the results tables as induction factors. Similarity comparisons of expression profiles of various experiments and cluster analyses were carried out using the “genedata expressionist” software from Genedata (Genedata, Maulbeerstr. 46, CH-4016 Basel, Switzerland).
(§6) The analysis of the expression profiles specifically searched for genes which are induced by the test substances only in conjunction with abiotic stress, but not by the substances or by stress alone. Such genes can be considered as indicators for additional anti-stress effects of the substances which exceed the known safener effect. The induction patterns of the indicator genes described permit the targeted finding of active substances for increasing the abiotic stress tolerance in crop plants. • a) Under heat stress conditions, i.e. the tested maize plants (dressed with 2 mg a.i. 4-cyclopropylaminocarbonyl-N-(2-methoxybenzoyl)benzenesulfonamide/g seeds) were exposed to a temperature of 45° C. for 6 hours 7 days after germination.
(§7) • Condition A: heat stress (6 hours, 45° C.) • Condition B: Seeds dressed with 4-cyclopropylaminocarbonyl-N-(2-methoxybenzoyl)benzenesulfonamide (VIII-3)/NO heat stress • Condition C: Seeds dressed with 4-cyclopropylaminocarbonyl-N-(2-methoxybenzoyl)benzenesulfonamide (VIII-3)+heat stress (6 hours, 45° C.).

[2] = test system: Zm.3040.1.S1_at uricase II (E.C.1.7.3.3); nodule specific uricase; test: as above; format: in vivo, maize cv. Lorenzo; details: vs unstressed solvent-dressed control
Description: as §1, §2, §3, §4, §5, §6, §7

[3] = test system: Zm.4274.1.S1_at: cytochrome P450; test: as above; format: in vivo, maize cv. Lorenzo; details: vs unstressed solvent-dressed control
Description: as §1, §2, §3, §4, §5, §6, §7

[4] = test system: Zm18994.2.A1_at: putative serine transferase; test: as above; format: in vivo, maize cv. Lorenzo; details: vs unstressed solvent-dressed control
Description: as §1, §2, §3, §4, §5, §6, §7

[5] = test system: Zm.13498.1.S1_at: membrane protein; test: as above; format: in vivo, maize cv. Lorenzo; details: vs unstressed solvent-dressed control
Description: as §1, §2, §3, §4, §5, §6, §7

[6] = test system: Zm.11840.1.A1_at: putative N-carbamyl-L-amino acid amidohydrolase; test: as above; format: in vivo, maize cv. Lorenzo; details: vs unstressed solvent-dressed control
Description: as §1, §2, §3, §4, §5, §6, §7

maize plants [7] = test: Chill stress experiment (field) with maize plants, seed dressing; format: in vivo, maize (dent com); details: for Chill damage [%]: number of plants with chill damage > 20% of the total number of plants in the test plot
Description: One control plant contains untreated seed. Approximately 8 days after the seed emerged, the seedlings were in the one-leaf stage and were exposed for 5 days to the following temperature conditions:
After this chill period, the test plots were scored. For this purpose, all plants were assessed individually, and plants with at least 20% chill symptoms based on the total leaf area (burns and/or chloroses) were considered to be damaged.

maize plants [8] = test: Heat stress experiment with maize plants, seed dressing with active substance; format: in vivo, maize cv. Lorenzo
Source text: Maize seeds cv. Lorenzo were dressed as in example 1 with the compound 4-cyclopropylaminocarbonyl-N-(2-methoxybenzoyl)benzenesulfonamide (=VIII-3) or treated only with solvent without active substance. The seedlings were raised for 10 days in the controlled-environment chamber under defined conditions, likewise as described in example 1.2×10 pots with maize plants were used for the heat stress experiment. The control group consisted of undressed plants (solvent), the test group of plants which had been dressed with active substance. To apply the heat stress conditions, both plant groups were placed for 2 days into a controlled-environment cabinet at 45′C, white light, long day (16 hours fight, 8 hours dark) and 70% atmospheric humidity. To avoid desiccation as the result of the high temperature, the plants were irrigated once per day from below by raising the water level in a tray. After the heat stress, it was observed that—especially in the control group—the shoots of many plants had collapsed and that the leaves were lying flat on the ground.
The experiment was valued quantitatively, taking into consideration the following criteria.
After the heat treatment, the plants which had collapsed were counted and the result per pot was assessed:
Thereafter, all plants were grown on for 2 weeks under standard conditions. Then, the length increment of the individual plants was measured, and the survival rate of the plants per pot was determined: […]

[9] = seeds dressed with VIII-3 (2 mg a.i./g seeds), NO heat stress
[10] = seeds dressed with VIII-3 + heat stress (6 hours, 45° C.)
[11] = seeds dressed, after heat stress

`COc1ccccc1C(=O)NS(=O)(=O)c1ccc(C(=O)NC2CC2)cc1` [VIII-3, 4-cyclopropylaminocarbonyl-N-(2-methoxybenzoyl)benzenesulfonamide] was tested, and the “induction factor Zm12587.1.S1.s_at, Condition B” value [1, 9] was 1.45, the “induction factor Zm12587.1.S1.s_at, Condition C” value [1, 10] was 2.33 and the “induction factor Zm.3040.1.S1_at, Condition B” value [2, 9] was 1.33. The “induction factor Zm.3040.1.S1_at, Condition C” value [2, 10] was 2.48, the “induction factor Zm.4274.1.S1_at, Condition B” value [3, 9] was 1.22 and the “induction factor Zm.4274.1.S1_at, Condition C” value [3, 10] was 1.93. The “induction factor Zm18994.2.A1_at, Condition B” value [4, 9] was 1.46, the “induction factor Zm18994.2.A1_at, Condition C” value [4, 10] was 2.66 and the “induction factor Zm.13498.1.S1_at, Condition B” value [5, 9] was 1.73. For the same compound, the “induction factor Zm.13498.1.S1_at, Condition C” value [5, 10] was 4.45, the “induction factor Zm.11840.1.A1_at, Condition B” value [6, 9] was 1.75 and the “induction factor Zm.11840.1.A1_at, Condition C” value [6, 10] was 4.10. For the same compound, the “Chill damage [%]” value (maize plants [7]; dressed with 0.003 mg per seed) was 12%, the “Chill damage [%]” value (maize plants [7]; dressed with 0.03 mg per seed) was 12% and the “chill damage compared with control plot” value (maize plants [7]; test plots with dressing with active substance) was “significantly reduced”. For the same compound, the “plants showing damage symptoms” value (maize plants [7]; test plots with dressing with active substance (both quantities)) was “approximately 12%”, the “Interim score (collapsed plants)” value (maize plants [8]; +S/+H: seeds dressed, heat stress 2 days 45° C, one symbol per pot (10 pots)) was “◯◯◯◯◯◯◯◯◯◯” and the “"standing" of the plants after heat stress” value (maize plants [8]; [11]) was “considerably better”. The “survival rate compared with the control group” value (maize plants [8]; [11]) was “significantly higher”.
